Source: patent US20100204340A1 (priority 2009, published 2010)
pIC50: −log10 of the molar value. Each block holds one compound with its values, some of them ahead of it.

Tests used:
[1] = target: T1, SIRT1 polypeptide (Homo sapiens, UniProt Q96EB6); experiment: SIRT 1 Direct fluorescent Screening Assay kit (Cayman); type: biochemical; conditions: read-out: Percentage SIRT 1 modulation; for activation at 1 µg/mL: 1 μg/ml; for activation at 10 µg/mL: 10 μg/ml; for activation at 50 µg/mL: 50 μg/ml; for activation at 100 µg/mL: 100 μg/ml; for activation at 250 µg/mL: 250 μg/ml
T1 construct: purchased Cayman Chemical Company 10010401
T1 sequence (Q96EB6 1-747): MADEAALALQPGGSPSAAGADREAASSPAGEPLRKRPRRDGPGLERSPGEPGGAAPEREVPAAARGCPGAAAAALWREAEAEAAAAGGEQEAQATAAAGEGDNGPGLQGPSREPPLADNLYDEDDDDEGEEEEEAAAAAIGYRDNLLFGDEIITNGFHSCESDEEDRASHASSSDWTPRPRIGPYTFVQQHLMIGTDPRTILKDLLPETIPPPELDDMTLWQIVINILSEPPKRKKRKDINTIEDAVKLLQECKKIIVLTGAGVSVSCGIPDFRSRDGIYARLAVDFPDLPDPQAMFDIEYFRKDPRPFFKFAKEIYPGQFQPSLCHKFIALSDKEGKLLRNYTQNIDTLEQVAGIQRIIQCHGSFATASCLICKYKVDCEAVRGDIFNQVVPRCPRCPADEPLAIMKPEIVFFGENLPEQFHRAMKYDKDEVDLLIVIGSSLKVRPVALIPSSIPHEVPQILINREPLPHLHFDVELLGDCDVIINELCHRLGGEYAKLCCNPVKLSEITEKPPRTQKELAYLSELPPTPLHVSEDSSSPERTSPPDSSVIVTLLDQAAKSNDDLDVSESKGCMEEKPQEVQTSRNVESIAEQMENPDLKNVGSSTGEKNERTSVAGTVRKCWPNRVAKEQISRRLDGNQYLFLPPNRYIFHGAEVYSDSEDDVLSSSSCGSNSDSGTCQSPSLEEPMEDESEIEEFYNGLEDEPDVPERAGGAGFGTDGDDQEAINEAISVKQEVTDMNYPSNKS
Experimental: SIRT-1 activation/inhibition was measured using the SIRT 1 Direct fluorescent Screening Assay kit (Catalog No. 10010401) and instructions provided therein of Cayman Chemical Company, 1180 East Ellsworth Road, Ann Arbor, Mich. 48108 USA. (http://www.caymanchem.com/pdfs/10010401.pdf)

[2] = test system: adipocyte differentiation; conditions: prior art, Biochem Biophys Res Commun 372 (2008) 108-113; cited from earlier work
[3] = Pharmacokinetics in serum and urine upon oral administration; type: in vivo, rats; conditions: rats, oral, 100 mg/kg body weight
Experimental: The compound in its free and conjugated form is freely absorbed into systemic circulation with the glucoronide detected up to 72 hours.
(FIG. 4). The compound in its free and conjugated form appears in systemic circulation within 15 minutes of administration.

[4] = test system: 3T3-L1 cells; conditions: cited from earlier work

Compound: Oc1cc(O)cc(/C=C/c2ccc(O)cc2O)c1 [Oxyresveratrol, trans-2,3′,4,5′-tetrahydroxystilbene]
- activation at 1 µg/mL [1]: 77.8%
- activation at 10 µg/mL [1]: 24.4%
- activation at 50 µg/mL [1]: 60%
- activation at 100 µg/mL [1]: 202%
- activation at 250 µg/mL [1]: 298%

Compound: Oc1ccc(/C=C/c2cc(O)cc3c2[C@@H](c2cc(O)cc(O)c2)[C@H](c2ccc(O)cc2)O3)cc1 [e-viniferin]
- Effect on adipocyte differentiation / adipogenesis [2]: no effect on adipogenesis

Compound: COc1ccc(C=Cc2cc(OC(C)=O)cc(OC3OC(COC(C)=O)C(OC(C)=O)C(OC(C)=O)C3OC(C)=O)c2)cc1OC(C)=O (stereo not shown) [rhaponticin hexaacetate]
- Effect on adipocyte differentiation / adipogenesis [2]: no effect on adipogenesis

Compound: Oc1cc(O)cc(/C=C/c2c(O)cccc2O)c1 [Gnetol, 2,3′,5′,6-tetrahydroxy-trans-stilbene]
- Oral bioavailability (free form and glucoronide) ([3]; serum): orally bioavailable
- Urinary excretion form ([3]; urine): excreted predominantly as glucoronides in the urine

Compound: Oc1ccc([C@H]2c3c(O)cc(O)cc3[C@H]3c4c(cc(O)cc4[C@@H]2c2cc(/C=C/c4cc(O)cc5c4[C@H](c4cc(O)cc(O)c4)[C@@H](c4ccc(O)cc4)O5)ccc2O)O[C@@H]3c2ccc(O)cc2)cc1 [Vitisin A]
- Effect on adipocyte differentiation / adipogenesis [2]: inhibited adipocyte differentiation most effectively

Compound: OC[C@H]1O[C@@H](Oc2cc(O)cc(/C=C/c3ccc(O)cc3)c2)[C@H](O)[C@@H](O)[C@@H]1O [resveratrol-3-O-B-D-glucoside]
- Effect on adipocyte differentiation / adipogenesis [2]: no effect on adipogenesis

Compound: CC(=O)Oc1ccc(C=Cc2cc(OC(C)=O)cc(OC(C)=O)c2)cc1 [resveratrol triacetate]
- Effect on adipocyte differentiation / adipogenesis [2]: no effect on adipogenesis

Compound: COc1c(O)cc(C=Cc2ccccc2)cc1O [3,5-dihydroxy-4-methoxystilbene]
- Effect on adipocyte differentiation / adipogenesis [2]: no effect on adipogenesis

Compound: COc1ccc(/C=C/c2cc(O)cc(O[C@@H]3O[C@H](CO)[C@@H](O)[C@H](O)[C@H]3O)c2)cc1O [rhaponticin]
- Effect on adipocyte differentiation / adipogenesis [2]: no effect on adipogenesis

Compound: CC(=O)OCC1OC(Oc2cc(C=Cc3ccc(OC(C)=O)cc3)cc(OC(C)=O)c2)C(OC(C)=O)C(OC(C)=O)C1OC(C)=O (stereo not shown) [resveratrol-3-O-Glu hexaacetate]
- Effect on adipocyte differentiation / adipogenesis [2]: no effect on adipogenesis

Compound: CC(=O)O.Cc1c(O)cc(C=Cc2ccccc2)cc1O [3,5-dihydroxy-4-methylstilbene acetate]
- Effect on adipocyte differentiation / adipogenesis [2]: no effect on adipogenesis

Compound: COc1ccc(C=Cc2cc(O)cc(O)c2)cc1 [3,5-dihydroxy-40-methoxystilbene]
- Effect on adipocyte differentiation / adipogenesis [2]: no effect on adipogenesis

- activation at 1 µg/mL [1]: 2.22%
- activation at 10 µg/mL [1]: 11.1%
- activation at 50 µg/mL [1]: 53.3%
- activation at 100 µg/mL [1]: 113%
- activation at 250 µg/mL [1]: 231%
Compound: COc1cc(C=Cc2ccc(O)cc2)cc(OC)c1 [Pterostilbene, 3,5-dimethoxy-4′-hydroxystilbene]
- pIC50 ([4]; approximate conversion of 23.9 μg/ml, read-out: Reported IC50 (adipogenesis), converted): ~4.02
- Reported IC50 (adipogenesis) ([4]; reported, Remsberg et al., 3T3-L1): 23.9 µg/mL

- activation at 1 µg/mL [1]: 64.4%
Compound: CC(NC(=O)c1ccccc1/N=C/c1c(O)ccc2ccccc12)c1ccccc1 (stereo not shown) [Sirtinol, 2-[(2-Hydroxynaphthalen-1-ylmethylene)amino]-N-(1-phenyl-ethyl)•benzamide]
